Laboratory results as given in patent US10722520B2, “Heterocyclic compounds and their use in preventing or treating bacterial infections” (MUTABILIS, priority 2016, dated 2020).
Where a name gives a salt, the structure may show the parent alone. Read-outs that look alike come from different tables or passages of the source.

Tests used:
E. cloacae P99 = experiment: MIC of compound alone, broth microdilution; type: cell-based; conditions: Enterobacter cloacae; strain P99; compound alone; read-out: MIC compounds of the invention alone
Procedure: (§1) Log phase bacterial suspensions were adjusted to a final density of 5×10^5 cfu/mL in cation-adjusted Mueller-Hinton broth (Becton-Dickinson) and added to each well (98 μL). Microplates were incubated for 16-20 h at 35° C. in ambient air. The MIC of the compounds was defined as the lowest concentration of said compounds that prevented bacterial growth as read by visual inspection.

E. coli 190317 = experiment: MIC of compound alone, broth microdilution; type: cell-based; conditions: Escherichia coli; strain 190317; compound alone; read-out: MIC compounds of the invention alone
Procedure: as §1

K. pneumoniae 6299 = experiment: MIC of compound alone, broth microdilution; type: cell-based; conditions: Klebsiella pneumoniae; strain 6299; compound alone; read-out: MIC compounds of the invention alone
Procedure: as §1

K. pneumoniae BAA-1898 = experiment: MIC of compound alone, broth microdilution; type: cell-based; conditions: Klebsiella pneumoniae, BAA1898; strain BAA-1898; compound alone; read-out: MIC compounds of the invention alone
Procedure: as §1

P. aeruginosa CIP107051 = experiment: MIC of compound alone, broth microdilution; type: cell-based; conditions: Pseudomonas aeruginosa; strain CIP107051; compound alone; read-out: MIC compounds of the invention alone
Procedure: as §1

CMY-37 = CMY-37 (Citrobacter freundii, UniProt P05193); conditions: read-out: IC50 β-lactamase CMY-37
AmpC (P99) = AmpC (P99) (Enterobacter cloacae, UniProt P05364); experiment: biochemical
AmpC (PAE) = AmpC (PAE) (Pseudomonas aeruginosa, UniProt P24735); experiment: biochemical
OXA-15 = OXA-15 (Pseudomonas aeruginosa, UniProt Q51574); experiment: biochemical
TEM-1 = TEM-1 (Escherichia coli, UniProt P62593)
SHV-1 = SHV-1 (Klebsiella pneumoniae, UniProt P0AD64)
CTX-M-15 = CTX-M-15 (Escherichia coli, UniProt Q9EXV5)
KPC-2 = KPC-2 (Klebsiella pneumoniae, UniProt Q9F663)
OXA-1 = OXA-1 (Escherichia coli, UniProt P13661)
OXA-11 = OXA-11 (Pseudomonas aeruginosa, UniProt Q06778)
OXA-48 = OXA-48 (Klebsiella pneumoniae, UniProt Q6XEC0)
[1] = class (C), nitrocefin 200 μM, 30-min pre-incubation, enzyme 0.2 nM

## NCCONC(=O)c1ccn(C2=CC3CN(C2)C(=O)N3OS(=O)(=O)O)n1 (stereo not shown) [Example 46, [3-[3-(2-aminoethoxycarbamoyl)pyrazol-1-yl]-7-oxo-1,6-diazabicyclo[3.2.1]oct-3-en-6-yl]hydrogen sulfate]
E. cloacae P99
  MIC: 16 µg/mL
E. coli 190317
  MIC: 2 µg/mL
K. pneumoniae 6299
  MIC: > 32 µg/mL
K. pneumoniae BAA-1898
  MIC: 16 µg/mL
P. aeruginosa CIP107051
  MIC: > 32 µg/mL
CMY-37; [1]
  IC50: 0.016 µM
AmpC (P99)
  IC50: 0.025 µM
AmpC (PAE)
  IC50: 0.16 µM
OXA-15
  IC50: 0.17 µM
TEM-1
  IC50: 0.00089 µM
SHV-1
  IC50: 0.004 µM
CTX-M-15
  IC50: 0.0007 µM
KPC-2
  IC50: 0.011 µM
OXA-1
  IC50: 0.14 µM
OXA-11
  IC50: 0.049 µM
OXA-48
  IC50: 0.0039 µM

## O=C1N2CC(n3cc(C(F)(F)F)cn3)=CC(C2)N1OS(=O)(=O)[O-].[Na+] (stereo not shown) [Example 22, sodium [7-oxo-3-[4-(trifluoromethyl)pyrazol-1-yl]-1,6-diazabicyclo[3.2.1]oct-3-en-6-yl]sulfate]
E. cloacae P99
  MIC: > 32 µg/mL
E. coli 190317
  MIC: > 32 µg/mL
K. pneumoniae 6299
  MIC: > 32 µg/mL
K. pneumoniae BAA-1898
  MIC: > 32 µg/mL
P. aeruginosa CIP107051
  MIC: > 32 µg/mL
CMY-37
  IC50: 0.012 µM
AmpC (P99)
  IC50: 0.017 µM
AmpC (PAE)
  IC50: 0.078 µM
OXA-15
  IC50: 0.0091 µM
TEM-1
  IC50: 0.00021 µM
SHV-1
  IC50: 0.0011 µM
CTX-M-15
  IC50: 0.00055 µM
KPC-2
  IC50: 0.003 µM
OXA-1
  IC50: 0.18 µM
OXA-11
  IC50: 0.22 µM
OXA-48
  IC50: 0.0046 µM

## NC(=O)CNCc1cn(C2=CC3CN(C2)C(=O)N3OS(=O)(=O)O)nn1 (stereo not shown) [Example 66, [3-(4-(2-(methylamino)acetamide)triazol-1-yl)-7-oxo-1,6-diazabicyclo[3.2.1]oct-3-en-6-yl]hydrogen sulfate]
E. cloacae P99
  MIC: 8 µg/mL
E. coli 190317
  MIC: 4 µg/mL
K. pneumoniae 6299
  MIC: 32 µg/mL
K. pneumoniae BAA-1898
  MIC: 16 µg/mL
P. aeruginosa CIP107051
  MIC: > 32 µg/mL
CMY-37; [1]
  IC50: 0.026 µM
AmpC (P99)
  IC50: 0.014 µM
AmpC (PAE)
  IC50: 0.25 µM
OXA-15
  IC50: 0.0075 µM
TEM-1
  IC50: 0.00036 µM
SHV-1
  IC50: 0.0031 µM
CTX-M-15
  IC50: 0.00054 µM
KPC-2
  IC50: 0.0061 µM
OXA-1
  IC50: 0.087 µM
OXA-11
  IC50: 0.14 µM
OXA-48
  IC50: 0.00064 µM

## O=C1N2CC(n3ccc([C@H](O)CO)n3)=CC(C2)N1OS(=O)(=O)[O-].[Na+] (stereo partly drawn) [Example 76, sodium [3-[3-[(1S)-1,2-dihydroxyethyl]pyrazol-1-yl]-7-oxo-1,6-diazabicyclo[3.2.1]oct-3-en-6-yl]sulfate]
E. cloacae P99
  MIC: 32 µg/mL
E. coli 190317
  MIC: 8 µg/mL
K. pneumoniae 6299
  MIC: > 32 µg/mL
K. pneumoniae BAA-1898
  MIC: > 32 µg/mL
P. aeruginosa CIP107051
  MIC: > 32 µg/mL
AmpC (P99)
  IC50: 0.029 µM
AmpC (PAE)
  IC50: 0.21 µM
OXA-15
  IC50: 0.61 µM
TEM-1
  IC50: 0.0018 µM
SHV-1
  IC50: 0.0073 µM
CTX-M-15
  IC50: 0.0021 µM
KPC-2
  IC50: 0.073 µM
OXA-1
  IC50: 0.86 µM
OXA-11
  IC50: 0.26 µM
OXA-48
  IC50: 0.05 µM

## CC(=O)c1ccn(C2=CC3CN(C2)C(=O)N3OS(=O)(=O)[O-])n1.[Na+] (stereo not shown) [Example 28, sodium (7-oxo-3-(3-acetylpyrazol-1-yl)-1,6-diazabicyclo[3.2.1]oct-3-en-6-yl) sulfate]
E. cloacae P99
  MIC: > 32 µg/mL
E. coli 190317
  MIC: 16 µg/mL
K. pneumoniae 6299
  MIC: > 32 µg/mL
K. pneumoniae BAA-1898
  MIC: > 32 µg/mL
P. aeruginosa CIP107051
  MIC: > 32 µg/mL
CMY-37
  IC50: 0.037 µM
AmpC (P99)
  IC50: 0.01 µM
AmpC (PAE)
  IC50: 0.2 µM
OXA-15
  IC50: 0.03 µM
TEM-1
  IC50: 0.00037 µM
SHV-1
  IC50: 0.0022 µM
CTX-M-15
  IC50: 0.0005 µM
KPC-2
  IC50: 0.0048 µM
OXA-1
  IC50: 0.064 µM
OXA-11
  IC50: 0.029 µM
OXA-48
  IC50: 0.0038 µM

## O=C1N2CC(n3ccc(CO)n3)=CC(C2)N1OS(=O)(=O)O (stereo not shown) [Example 12, triethylammonium [3-[3-(hydroxymethyl)pyrazol-1-yl]-7-oxo-1,6-diazabicyclo[3.2.1]oct-3-en-6-yl]sulfate]
E. cloacae P99
  MIC: 4 µg/mL
E. coli 190317
  MIC: 1 µg/mL
K. pneumoniae 6299
  MIC: 16 µg/mL
K. pneumoniae BAA-1898
  MIC: 8 µg/mL
P. aeruginosa CIP107051
  MIC: > 32 µg/mL
AmpC (P99)
  IC50: 0.015 µM
AmpC (PAE)
  IC50: 0.052 µM
OXA-15
  IC50: 0.19 µM
TEM-1
  IC50: 0.00041 µM
SHV-1
  IC50: 0.0021 µM
CTX-M-15
  IC50: 0.00053 µM
KPC-2
  IC50: 0.026 µM
OXA-1
  IC50: 0.2 µM
OXA-11
  IC50: 0.07 µM
OXA-48
  IC50: 0.012 µM

## O=C1N2CC(n3ccc(F)n3)=CC(C2)N1OS(=O)(=O)[O-].[Na+] (stereo not shown) [Example 18, sodium [7-oxo-3-(3-fluoropyrazol-1-yl)-1,6-diazabicyclo[3.2.1]oct-3-en-6-yl]sulfate]
E. cloacae P99
  MIC: 8 µg/mL
E. coli 190317
  MIC: 1 µg/mL
K. pneumoniae 6299
  MIC: 4 µg/mL
K. pneumoniae BAA-1898
  MIC: 8 µg/mL
P. aeruginosa CIP107051
  MIC: > 32 µg/mL
CMY-37
  IC50: 0.018 µM
AmpC (P99)
  IC50: 0.024 µM
AmpC (PAE)
  IC50: 0.043 µM
OXA-15
  IC50: 0.078 µM
TEM-1
  IC50: 0.00043 µM
SHV-1
  IC50: 0.0028 µM
CTX-M-15
  IC50: 0.00065 µM
KPC-2
  IC50: 0.013 µM
OXA-1
  IC50: 0.096 µM
OXA-11
  IC50: 0.046 µM
OXA-48
  IC50: 0.0082 µM

## NCCNC(=O)c1cnn(C2=CC3CN(C2)C(=O)N3OS(=O)(=O)O)c1 (stereo not shown) [Example 38, [3-[4-(2-aminoethylcarbamoyl)pyrazol-1-yl]-7-oxo-1,6-diazabicyclo[3.2.1]oct-3-en-6-yl]hydrogen sulfate]
E. cloacae P99
  MIC: 16 µg/mL
E. coli 190317
  MIC: 4 µg/mL
K. pneumoniae 6299
  MIC: > 32 µg/mL
K. pneumoniae BAA-1898
  MIC: > 32 µg/mL
P. aeruginosa CIP107051
  MIC: 32 µg/mL
CMY-37; [1]
  IC50: 0.038 µM
AmpC (P99)
  IC50: 0.034 µM
AmpC (PAE)
  IC50: 0.21 µM
OXA-15
  IC50: 0.017 µM
TEM-1
  IC50: 0.00043 µM
SHV-1
  IC50: 0.0025 µM
CTX-M-15
  IC50: 0.0007 µM
KPC-2
  IC50: 0.0075 µM
OXA-1
  IC50: 0.18 µM
OXA-11
  IC50: 0.05 µM
OXA-48
  IC50: 0.0032 µM

## O=C(c1ccn(C2=CC3CN(C2)C(=O)N3OS(=O)(=O)[O-])n1)N1CCOCC1.[Na+] (stereo not shown) [Example 31, sodium (7-oxo-3-[3-(morpholine-4-carbonyl)pyrazol-1-yl]-1,6-diazabicyclo[3.2.1]oct-3-en-6-yl) sulfate]
E. cloacae P99
  MIC: > 32 µg/mL
E. coli 190317
  MIC: > 32 µg/mL
K. pneumoniae 6299
  MIC: > 32 µg/mL
K. pneumoniae BAA-1898
  MIC: > 32 µg/mL
P. aeruginosa CIP107051
  MIC: > 32 µg/mL
AmpC (P99)
  IC50: 0.015 µM
AmpC (PAE)
  IC50: 0.21 µM
OXA-15
  IC50: 0.088 µM
TEM-1
  IC50: 0.0013 µM
SHV-1
  IC50: 0.0044 µM
CTX-M-15
  IC50: 0.00062 µM
KPC-2
  IC50: 0.011 µM
OXA-1
  IC50: 0.064 µM
OXA-11
  IC50: 0.033 µM
OXA-48
  IC50: 0.003 µM

## O=C(Nc1cc[nH]n1)c1ccn(C2=CC3CN(C2)C(=O)N3OS(=O)(=O)[O-])n1.[Na+] (stereo not shown) [Example 85, sodium [7-oxo-3-[3-(pyrazol-3-ylcarbamoyl)pyrazol-1-yl]-1,6-diazabicyclo[3.2.1]oct-3-en-6-yl]sulfate]
E. cloacae P99
  MIC: > 32 µg/mL
E. coli 190317
  MIC: 32 µg/mL
K. pneumoniae 6299
  MIC: > 32 µg/mL
K. pneumoniae BAA-1898
  MIC: > 32 µg/mL
P. aeruginosa CIP107051
  MIC: > 32 µg/mL
AmpC (P99)
  IC50: 0.011 µM
AmpC (PAE)
  IC50: 0.13 µM
OXA-15
  IC50: 0.016 µM
TEM-1
  IC50: 0.00035 µM
SHV-1
  IC50: 0.0016 µM
CTX-M-15
  IC50: 0.00059 µM
KPC-2
  IC50: 0.0034 µM
OXA-1
  IC50: 0.022 µM
OXA-11
  IC50: 0.0075 µM
OXA-48
  IC50: 0.0017 µM

## O=C1N2CC(n3cc(CO)nn3)=CC(C2)N1OS(=O)(=O)O (stereo not shown) [Example 64, sodium [3-[4-(hydroxymethyl)triazol-1-yl]-7-oxo-1,6-diazabicyclo[3.2.1]oct-3-en-6-yl]sulfate]
E. cloacae P99
  MIC: 4 µg/mL
E. coli 190317
  MIC: 2 µg/mL
K. pneumoniae 6299
  MIC: 32 µg/mL
K. pneumoniae BAA-1898
  MIC: 8 µg/mL
P. aeruginosa CIP107051
  MIC: > 32 µg/mL
OXA-15
  IC50: 0.0087 µM
TEM-1
  IC50: 0.00052 µM
SHV-1
  IC50: 0.0029 µM
CTX-M-15
  IC50: 0.001 µM
KPC-2
  IC50: 0.007 µM
OXA-1
  IC50: 0.086 µM
OXA-11
  IC50: 0.096 µM
OXA-48
  IC50: 0.0007 µM
